# Assay results from ChEMBL document CHEMBL1773043, “Platensimycin and platencin congeners from Streptomyces platensis” (J Nat Prod, 2011).
# Active and inactive are the calls of the source. The calls are words filed in the database; no cut-off is given here.
# Test system: Streptococcus pneumoniae
# Experiment: Antibacterial activity against Streptococcus pneumoniae at 64 ug/ml after 20 hrs
# Type: functional, organism-based
row,SMILES,Activity
1,CC12CC34C=CC(=O)[C@@](C)(CCC(=O)Nc5c(O)ccc(C(=O)O)c5O)C3C(C[C@]1(O)C4)O2 (some centres not stated),inactive
2,CC(=O)NCC[C@H](NC(=O)CC[C@]1(C)C(=O)C=C[C@]23CC4C[C@H](O[C@]4(C)C2)C31)C(=O)O (some centres not stated),inactive
3,C[C@@]1(CCC(=O)Nc2c(O)ccc(C(=O)O)c2O)C(=O)C=CC23CC(CCC21)C(O)(CO)C3 (some centres not stated),inactive
4,COC(=O)c1ccc(O)c(NC(=O)CC[C@]2(C)C(=O)C=C[C@]34CC5C[C@H](O[C@]5(C)C3)C42)c1O (some centres not stated),inactive
5,C=C1C[C@@]23C=CC(=O)[C@@](C)(CCC(=O)OC)C2C[C@@H]1C[C@H]3O (some centres not stated),inactive
6,C[C@@]1(CCC(=O)Nc2c(O)ccc(C(=O)O)c2O)C(=O)C=CC23CC4CC(OC4(CO)C2)C31 (some centres not stated),inactive

# Test system: Enterococcus faecium
# Experiment: Antibacterial activity against Enterococcus faecium at 64 ug/ml after 20 hrs
# Type: functional, organism-based
row,SMILES,Activity
1,CC12CC34C=CC(=O)[C@@](C)(CCC(=O)Nc5c(O)ccc(C(=O)O)c5O)C3C(C[C@]1(O)C4)O2 (some centres not stated),inactive
2,CC(=O)NCC[C@H](NC(=O)CC[C@]1(C)C(=O)C=C[C@]23CC4C[C@H](O[C@]4(C)C2)C31)C(=O)O (some centres not stated),inactive
3,C[C@@]1(CCC(=O)Nc2c(O)ccc(C(=O)O)c2O)C(=O)C=CC23CC(CCC21)C(O)(CO)C3 (some centres not stated),inactive
4,COC(=O)c1ccc(O)c(NC(=O)CC[C@]2(C)C(=O)C=C[C@]34CC5C[C@H](O[C@]5(C)C3)C42)c1O (some centres not stated),inactive
5,C=C1C[C@@]23C=CC(=O)[C@@](C)(CCC(=O)OC)C2C[C@@H]1C[C@H]3O (some centres not stated),inactive
6,C[C@@]1(CCC(=O)Nc2c(O)ccc(C(=O)O)c2O)C(=O)C=CC23CC4CC(OC4(CO)C2)C31 (some centres not stated),inactive

# Test system: Escherichia coli
# Experiment: Antibacterial activity against Escherichia coli at 64 ug/ml after 20 hrs
# Type: functional, organism-based
row,SMILES,Activity
1,CC12CC34C=CC(=O)[C@@](C)(CCC(=O)Nc5c(O)ccc(C(=O)O)c5O)C3C(C[C@]1(O)C4)O2 (some centres not stated),inactive
2,CC(=O)NCC[C@H](NC(=O)CC[C@]1(C)C(=O)C=C[C@]23CC4C[C@H](O[C@]4(C)C2)C31)C(=O)O (some centres not stated),inactive
3,C[C@@]1(CCC(=O)Nc2c(O)ccc(C(=O)O)c2O)C(=O)C=CC23CC(CCC21)C(O)(CO)C3 (some centres not stated),inactive
4,COC(=O)c1ccc(O)c(NC(=O)CC[C@]2(C)C(=O)C=C[C@]34CC5C[C@H](O[C@]5(C)C3)C42)c1O (some centres not stated),inactive
5,C=C1C[C@@]23C=CC(=O)[C@@](C)(CCC(=O)OC)C2C[C@@H]1C[C@H]3O (some centres not stated),inactive
6,C[C@@]1(CCC(=O)Nc2c(O)ccc(C(=O)O)c2O)C(=O)C=CC23CC4CC(OC4(CO)C2)C31 (some centres not stated),inactive

# Test system: Enterococcus faecalis
# Experiment: Antibacterial activity against Enterococcus faecalis at 64 ug/ml after 20 hrs
# Type: functional, organism-based
row,SMILES,Activity
1,CC12CC34C=CC(=O)[C@@](C)(CCC(=O)Nc5c(O)ccc(C(=O)O)c5O)C3C(C[C@]1(O)C4)O2 (some centres not stated),inactive
2,CC(=O)NCC[C@H](NC(=O)CC[C@]1(C)C(=O)C=C[C@]23CC4C[C@H](O[C@]4(C)C2)C31)C(=O)O (some centres not stated),inactive
3,C[C@@]1(CCC(=O)Nc2c(O)ccc(C(=O)O)c2O)C(=O)C=CC23CC(CCC21)C(O)(CO)C3 (some centres not stated),inactive
4,COC(=O)c1ccc(O)c(NC(=O)CC[C@]2(C)C(=O)C=C[C@]34CC5C[C@H](O[C@]5(C)C3)C42)c1O (some centres not stated),inactive
5,C=C1C[C@@]23C=CC(=O)[C@@](C)(CCC(=O)OC)C2C[C@@H]1C[C@H]3O (some centres not stated),inactive
6,C[C@@]1(CCC(=O)Nc2c(O)ccc(C(=O)O)c2O)C(=O)C=CC23CC4CC(OC4(CO)C2)C31 (some centres not stated),inactive

# Test system: Haemophilus influenzae
# Experiment: Antibacterial activity against Haemophilus influenzae at 64 ug/ml after 20 hrs
# Type: functional, organism-based
row,SMILES,Activity
1,CC12CC34C=CC(=O)[C@@](C)(CCC(=O)Nc5c(O)ccc(C(=O)O)c5O)C3C(C[C@]1(O)C4)O2 (some centres not stated),inactive
2,CC(=O)NCC[C@H](NC(=O)CC[C@]1(C)C(=O)C=C[C@]23CC4C[C@H](O[C@]4(C)C2)C31)C(=O)O (some centres not stated),inactive
3,C[C@@]1(CCC(=O)Nc2c(O)ccc(C(=O)O)c2O)C(=O)C=CC23CC(CCC21)C(O)(CO)C3 (some centres not stated),inactive
4,COC(=O)c1ccc(O)c(NC(=O)CC[C@]2(C)C(=O)C=C[C@]34CC5C[C@H](O[C@]5(C)C3)C42)c1O (some centres not stated),inactive
5,C=C1C[C@@]23C=CC(=O)[C@@](C)(CCC(=O)OC)C2C[C@@H]1C[C@H]3O (some centres not stated),inactive
6,C[C@@]1(CCC(=O)Nc2c(O)ccc(C(=O)O)c2O)C(=O)C=CC23CC4CC(OC4(CO)C2)C31 (some centres not stated),inactive

# Biological target: T1, 3-oxoacyl-[acyl-carrier-protein] synthase 2 (Staphylococcus aureus) (UniProt Q5TKS0)
# T1 sequence (whole entry): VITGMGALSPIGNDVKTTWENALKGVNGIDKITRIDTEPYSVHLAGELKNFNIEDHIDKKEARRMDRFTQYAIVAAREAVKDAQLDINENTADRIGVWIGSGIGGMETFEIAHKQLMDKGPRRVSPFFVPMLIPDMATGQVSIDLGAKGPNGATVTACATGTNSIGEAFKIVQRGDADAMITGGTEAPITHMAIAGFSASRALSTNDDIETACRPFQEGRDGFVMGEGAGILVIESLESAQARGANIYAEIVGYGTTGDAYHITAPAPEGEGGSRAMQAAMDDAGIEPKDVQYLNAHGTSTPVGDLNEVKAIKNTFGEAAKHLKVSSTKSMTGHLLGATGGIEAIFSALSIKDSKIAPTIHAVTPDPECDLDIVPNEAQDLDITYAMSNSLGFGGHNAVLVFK
# Experiment: Inhibition of Staphylococcus aureus […] assessed as [2-14C]-malonyl CoA incorporation after 90 mins by cell free-based scintillation counting
row,SMILES,inhibition
1,CC12CC34C=CC(=O)[C@@](C)(CCC(=O)Nc5c(O)ccc(C(=O)O)c5O)C3C(C[C@]1(O)C4)O2 (some centres not stated),inactive
2,CC(=O)NCC[C@H](NC(=O)CC[C@]1(C)C(=O)C=C[C@]23CC4C[C@H](O[C@]4(C)C2)C31)C(=O)O (some centres not stated),inactive
3,C[C@@]1(CCC(=O)Nc2c(O)ccc(C(=O)O)c2O)C(=O)C=CC23CC(CCC21)C(O)(CO)C3 (some centres not stated),inactive
4,COC(=O)c1ccc(O)c(NC(=O)CC[C@]2(C)C(=O)C=C[C@]34CC5C[C@H](O[C@]5(C)C3)C42)c1O (some centres not stated),inactive
5,C=C1C[C@@]23C=CC(=O)[C@@](C)(CCC(=O)OC)C2C[C@@H]1C[C@H]3O (some centres not stated),inactive
6,C[C@@]1(CCC(=O)Nc2c(O)ccc(C(=O)O)c2O)C(=O)C=CC23CC4CC(OC4(CO)C2)C31 (some centres not stated),inactive

# Test system: Staphylococcus aureus
# Experiment: Antibacterial activity against Staphylococcus aureus at 64 ug/ml after 20 hrs
# Type: functional, organism-based
row,SMILES,Activity
1,CC12CC34C=CC(=O)[C@@](C)(CCC(=O)Nc5c(O)ccc(C(=O)O)c5O)C3C(C[C@]1(O)C4)O2 (some centres not stated),inactive
2,CC(=O)NCC[C@H](NC(=O)CC[C@]1(C)C(=O)C=C[C@]23CC4C[C@H](O[C@]4(C)C2)C31)C(=O)O (some centres not stated),inactive
3,C[C@@]1(CCC(=O)Nc2c(O)ccc(C(=O)O)c2O)C(=O)C=CC23CC(CCC21)C(O)(CO)C3 (some centres not stated),inactive
4,COC(=O)c1ccc(O)c(NC(=O)CC[C@]2(C)C(=O)C=C[C@]34CC5C[C@H](O[C@]5(C)C3)C42)c1O (some centres not stated),inactive
5,C=C1C[C@@]23C=CC(=O)[C@@](C)(CCC(=O)OC)C2C[C@@H]1C[C@H]3O (some centres not stated),inactive
6,C[C@@]1(CCC(=O)Nc2c(O)ccc(C(=O)O)c2O)C(=O)C=CC23CC4CC(OC4(CO)C2)C31 (some centres not stated),inactive
